How the values were obtained:
Format in all cases: functional, organism-based, Hepacivirus hominis
[1] = tested on: Hepatitis C virus; assay: Antiviral activity against HCV genotype 1a assessed as replicon RNA level measured after 3 days by real-time PCR method; settings: subtype 1a, 72 h
[2] = tested on: Hepatitis C virus; assay: Antiviral activity against HCV genotype 1b assessed as replicon RNA level measured after 3 days by real-time PCR method; settings: 72 h
[3] = tested on: Hepatitis C virus; assay: Antiviral activity against HCV genotype 2a assessed as replicon RNA level measured after 3 days by real-time PCR method; settings: 72 h
[4] = tested on: Hepatitis C virus; assay: Antiviral activity against HCV genotype 2b assessed as replicon RNA level measured after 3 days by real-time PCR method; settings: 72 h
[5] = tested on: Hepatitis C virus; assay: Antiviral activity against HCV genotype 3a assessed as replicon RNA level measured after 3 days by real-time PCR method; settings: 72 h
[6] = tested on: Hepatitis C virus; assay: Antiviral activity against HCV genotype 4a assessed as replicon RNA level measured after 3 days by real-time PCR method; settings: 72 h
[7] = tested on: Hepatitis C virus; assay: Antiviral activity against HCV genotype 1a harboring NS5A Y93H mutant assessed as replicon RNA level measured after 3 days by real-time PCR method; settings: subtype 1a, 72 h
[8] = tested on: Hepatitis C virus; assay: Antiviral activity against HCV genotype 1a harboring NS5A L31V mutant assessed as replicon RNA level measured after 3 days by real-time PCR method; settings: subtype 1a, 72 h

SMILES	EC50 [1] [pM]	EC50 [2] [pM]	EC50 [3] [pM]	EC50 [4] [pM]	EC50 [5] [pM]	EC50 [6] [pM]	EC50 [7] [pM]	EC50 [8] [pM]
COC(=O)N[C@H](C(=O)N1CCC[C@H]1c1ncc(-c2ccc3c(c2)OC(c2cccc(C(=O)N(C)C)c2)n2c-3cc3cc(-c4cnc([C@@H]5CCCN5C(=O)[C@@H](NC(=O)OC)C(C)C)[nH]4)ccc32)[nH]1)C(C)C (mixture of isomers)	20	10	40	41000	> 1000	180	> 100000	400
COC(=O)N[C@H](C(=O)N1CCC[C@H]1c1ncc(-c2ccc3c(c2)OC(c2cccc(-c4ccc(N)nc4)c2)n2c-3cc3cc(-c4cnc([C@@H]5CCCN5C(=O)[C@@H](NC(=O)OC)C(C)C)[nH]4)ccc32)[nH]1)C(C)C (mixture of isomers)	4	6	5	2000	200	2	10000	200
CCOc1cccc(C2Oc3cc(-c4cnc([C@@H]5CCCN5C(=O)[C@@H](NC(=O)OC)C(C)C)[nH]4)ccc3-c3cc4cc(-c5cnc([C@@H]6CCCN6C(=O)[C@@H](NC(=O)OC)C(C)C)[nH]5)ccc4n32)c1 (mixture of isomers)	20	1	10	400	50	0.5	1800	200
COC(=O)N[C@H](C(=O)N1CCC[C@H]1c1ncc(-c2ccc3c(c2)OC(c2cccc(C#N)c2)n2c-3cc3cc(-c4cnc([C@@H]5CCCN5C(=O)[C@@H](NC(=O)OC)C(C)C)[nH]4)ccc32)[nH]1)C(C)C (mixture of isomers)	< 2000	< 200	< 2000	< 2000	< 2000	< 2000	4000	
COC(=O)N[C@H](C(=O)N1CCC[C@H]1c1ncc(-c2ccc3c(c2)OC(c2ccc(-c4c(C)nn(C)c4C)cc2)n2c-3cc3cc(-c4cnc([C@@H]5CCCN5C(=O)[C@@H](NC(=O)OC)C(C)C)[nH]4)ccc32)[nH]1)C(C)C (mixture of isomers)	40	20	20	5000	200	30	15000	< 2000
COC(=O)N[C@H](C(=O)N1CCC[C@H]1c1ncc(-c2ccc3c(c2)OC(c2cccc(OC(C)C)c2)n2c-3cc3cc(-c4cnc([C@@H]5CCCN5C(=O)[C@@H](NC(=O)OC)C(C)C)[nH]4)ccc32)[nH]1)C(C)C (mixture of isomers)	7			28000	80		4400	100
COC(=O)N[C@H](C(=O)N1CCC[C@H]1c1ncc(-c2ccc3c(c2)OC(c2cccc(O)c2)n2c-3cc3cc(-c4cnc([C@@H]5CCCN5C(=O)[C@@H](NC(=O)OC)C(C)C)[nH]4)ccc32)[nH]1)C(C)C (mixture of isomers)	20		30	3000	20	20	800	
COC(=O)N[C@H](C(=O)N1CCC[C@H]1c1ncc(-c2ccc3c(c2)OC(c2cc(F)ccc2OC)n2c-3cc3cc(-c4cnc([C@@H]5CCCN5C(=O)[C@@H](NC(=O)OC)C(C)C)[nH]4)ccc32)[nH]1)C(C)C (stereo not given in full)	20	10		1000			48000	1000
COC(=O)N[C@H](C(=O)N1CCC[C@H]1c1ncc(-c2ccc3c(c2)OC(c2cccc(C)c2)n2c-3cc3cc(-c4cnc([C@@H]5CCCN5C(=O)[C@@H](NC(=O)OC)C(C)C)[nH]4)ccc32)[nH]1)C(C)C (mixture of isomers)				2000			12000	520
COC(=O)N[C@H](C(=O)N1CCC[C@H]1c1ncc(-c2ccc3c(c2)OC(c2ccncc2)n2c-3cc3cc(-c4cnc([C@@H]5CCCN5C(=O)[C@@H](NC(=O)OC)C(C)C)[nH]4)ccc32)[nH]1)C(C)C (mixture of isomers)	10	10	20		800	200	146000	600
COC(=O)N[C@H](C(=O)N1CCC[C@H]1c1ncc(-c2ccc3c(c2)OC(c2ccccc2Cl)n2c-3cc3cc(-c4cnc([C@@H]5CCCN5C(=O)[C@@H](NC(=O)OC)C(C)C)[nH]4)ccc32)[nH]1)C(C)C (stereo not given in full)	10	4	40		2000	300	139000	2000
COC(=O)N[C@H](C(=O)N1CCC[C@H]1c1ncc(-c2ccc3c(c2)OC(c2ccc(C(F)(F)F)cc2)n2c-3cc3cc(-c4cnc([C@@H]5CCCN5C(=O)[C@@H](NC(=O)OC)C(C)C)[nH]4)ccc32)[nH]1)C(C)C (mixture of isomers)	16	9	27		270	40	46000	
COC(=O)N[C@H](C(=O)N1CCC[C@H]1c1ncc(-c2ccc3c(c2)OC(c2cc(F)cc(OC)c2)n2c-3cc3cc(-c4cnc([C@@H]5CCCN5C(=O)[C@@H](NC(=O)OC)C(C)C)[nH]4)ccc32)[nH]1)C(C)C (mixture of isomers)	6	7		100			2300	100
COC(=O)N[C@H](C(=O)N1CCC[C@H]1c1ncc(-c2ccc3c(c2)OC(c2cccc(-c4cn[nH]c4)c2)n2c-3cc3cc(-c4cnc([C@@H]5CCCN5C(=O)[C@@H](NC(=O)OC)C(C)C)[nH]4)ccc32)[nH]1)C(C)C (mixture of isomers)	10		30	25000	200		101000	10000
COC(=O)N[C@H](C(=O)N1CCC[C@H]1c1ncc(-c2ccc3c(c2)OC(c2cccc(OCC(C)C)c2)n2c-3cc3cc(-c4cnc([C@@H]5CCCN5C(=O)[C@@H](NC(=O)OC)C(C)C)[nH]4)ccc32)[nH]1)C(C)C (mixture of isomers)	10	4		12000	20		900	200
COC(=O)N[C@H](C(=O)N1CCC[C@H]1c1ncc(-c2ccc3c(c2)OC(c2ccc(C)cc2)n2c-3cc3cc(-c4cnc([C@@H]5CCCN5C(=O)[C@@H](NC(=O)OC)C(C)C)[nH]4)ccc32)[nH]1)C(C)C (stereo not given in full)	10	6	10		500	700	5000	4000
COC(=O)N[C@H](C(=O)N1CCC[C@H]1c1ncc(-c2ccc3c(c2)OC(c2ccccn2)n2c-3cc3cc(-c4cnc([C@@H]5CCCN5C(=O)[C@@H](NC(=O)OC)C(C)C)[nH]4)ccc32)[nH]1)C(C)C (mixture of isomers)	9	10	60	3000	200	20	31000	
CCCOc1cccc(C2Oc3cc(-c4cnc([C@@H]5CCCN5C(=O)[C@@H](NC(=O)OC)C(C)C)[nH]4)ccc3-c3cc4cc(-c5cnc([C@@H]6CCCN6C(=O)[C@@H](NC(=O)OC)C(C)C)[nH]5)ccc4n32)c1 (stereo not given in full)	10			2000	80		2600	300
COC(=O)N[C@H](C(=O)N1CCC[C@H]1c1ncc(-c2ccc3c(c2)OC(c2ccc(F)c(F)c2)n2c-3cc3cc(-c4cnc([C@@H]5CCCN5C(=O)[C@@H](NC(=O)OC)C(C)C)[nH]4)ccc32)[nH]1)C(C)C (stereo not given in full)	4	3	5	1000		8	3000	500
COC(=O)N[C@H](C(=O)N1CCC[C@H]1c1ncc(-c2ccc3c(c2)OC(c2cncnc2)n2c-3cc3cc(-c4cnc([C@@H]5CCCN5C(=O)[C@@H](NC(=O)OC)C(C)C)[nH]4)ccc32)[nH]1)C(C)C (mixture of isomers)	4		20	10000	200		12000	10000
COC(=O)N[C@H](C(=O)N1CCC[C@H]1c1ncc(-c2ccc3c(c2)OC(c2ccc(F)cc2)n2c-3cc3cc(-c4cnc([C@@H]5CCCN5C(=O)[C@@H](NC(=O)OC)C(C)C)[nH]4)ccc32)[nH]1)C(C)C (stereo not given in full)	3	6	2	2000	60	10	5000	
COC(=O)N[C@H](C(=O)N1CCC[C@H]1c1ncc(-c2ccc3c(c2)OC(c2cccc(-c4ccncc4)c2)n2c-3cc3cc(-c4cnc([C@@H]5CCCN5C(=O)[C@@H](NC(=O)OC)C(C)C)[nH]4)ccc32)[nH]1)C(C)C (mixture of isomers)	7		7	10000	80		40000	10000
COC(=O)N[C@H](C(=O)N1CCC[C@H]1c1ncc(-c2ccc3c(c2)OC(c2cccc(OC4CCCCC4)c2)n2c-3cc3cc(-c4cnc([C@@H]5CCCN5C(=O)[C@@H](NC(=O)OC)C(C)C)[nH]4)ccc32)[nH]1)C(C)C (mixture of isomers)	10	7		7000			3000	
COC(=O)N[C@H](C(=O)N1CCC[C@H]1c1ncc(-c2ccc3c(c2)OC(c2cccc(OC4CCCC4)c2)n2c-3cc3cc(-c4cnc([C@@H]5CCCN5C(=O)[C@@H](NC(=O)OC)C(C)C)[nH]4)ccc32)[nH]1)C(C)C (mixture of isomers)	10	6		6000	30		4000	200

Source: ChEMBL document CHEMBL3822455, “Aryl or heteroaryl substituted aminal derivatives of HCV NS5A inhibitor MK-8742” (Bioorg Med Chem Lett, 2016)
